Data reported in US20020042393A1, “Excipient” (priority 1998, published 2002).
One block for each compound: values may come before it.

How the values were obtained:
[1] = Tablet hardness (Schleuniger hardness meter); type: physicochemical; settings: for Tablet hardness at a compression pressure of 1000 kg/cm^2: phenacetin granules
[2] = Average particle size (sieving, 50% cumulative weight); type: physicochemical; settings: excipient powder
Experimental: Five grams of trehalose was sifted through screens having screen openings of 500 μm, 300 μm and 250 μm, respectively, and then sifted with Air Jet Sieve by using screens having screen openings of 150 μm, 75 μm, 45 μm, 38 μm and 32 μm, respectively. The oversize particle weight percentage [%] was calculated for each screen, and the average particle size is expressed as a particle size corresponding to a cumulative weight percentage of 50%.

[3] = Wet granulation of phenacetin mixture with HPC binder solution: granule size and yield
Apparent specific volume = type: physicochemical; settings: excipient powder
From the text: The whole of 10 g of trehalose powder was gently poured into a 100-ml measuring cylinder without making an impact (in this case, a cylinder having an outside diameter smaller than the inside diameter of the measuring cylinder was placed in the measuring cylinder, and it was slowly lifted after pouring the trehalose), and the apparent specific volume was expressed as a value obtained by dividing the read volume by the weight of the trehalose.

[4] = Whiteness of powder (color analyzer); type: physicochemical; settings: excipient powder
Experimental: (§1) For powder of trehalose or a pharmaceutical composition containing trehalose, values of L, a and b were measured with a color analyzer (TC-1800MKII, mfd. by Tokyo Denshoku Co., Ltd.), and the whiteness of the trehalose or pharmaceutical composition was calculated by the following equation: […]

[5] = Dissolution test (13th revised Japanese Pharmacopoeia) of phenacetin granules; type: physicochemical
Experimental: The wet granules obtained in Example 6 were subjected to a dissolution test according to the dissolution test prescribed in the 13th revised Japanese Pharmacopoeia. The first liquid listed in the Japanese Pharmacopoeia was used as a test liquid, and the drug dissolution rate after 5 minutes was measured. The dissolution rate was calculated by taking the total amount of the drug contained in the granules as 100%. […] In the case of the trehaloses J and K, the dissolution rate after 5 minutes was as very high as 80%.
The granules prepared from each of lactose and Mannit P in Comparative Example 4 were subjected to a dissolution test according to the dissolution test prescribed in the 13th revised Japanese Pharmacopoeia. The first liquid listed in the Japanese Pharmacopoeia was used as a test liquid, and the drug dissolution rate after 5 minutes was measured. The drug dissolution rate was calculated by taking the total amount of the drug contained in the granules as 100%. […] In the case of lactose and Mannit P, the dissolution rate after 5 minutes was lower than in the case of trehaloses J and K.

[6] = Proportion of particles of 75 μm or more (Air Jet Sieve); type: physicochemical; settings: excipient powder
Experimental: Five grams of trehalose was weighed onto a screen having a screen opening of 75 μm, and sifted with Air Jet Sieve (Model 200LS, mfd. by ALPINE) for 5 minutes, and the weight percentage of the weight of particles remaining on the screen based on the total weight of particles was calculated as the proportion of particles of 75 μm or more.

[7] = Angle of repose (Sugiwara's instrument); type: physicochemical; settings: excipient powder
From the text: Measured by means of a Sugiwara's instrument for measuring angle of repose (Yakuzaigaku 27, p. 260, 1965).

[8] = Water content (Karl Fisher) of tablets before and after storage; type: physicochemical; settings: tablets compressed at 500 kg/cm^2
Experimental: Determined as a value obtained by measuring about 0.1 g of trehalose and determining its water content by the Karl Fisher method.
One hundred grams of commercial “Trehaose” (available from Hayashibara Biochemical Laboratories, Inc.) was dissolved in water to a concentration of about 35 wt %, and the resulting solution was concentrated under reduced pressure with heating at 60° C. so as to have a concentration of about 75 wt %, and allowed to stand at room temperature to precipitate crystals, which were washed with 50 ml of water. Glucose was removed by carrying out the above purification procedure once or twice, to increase the trehalose purity. Trehalose A was obtained by carrying out the purification procedure twice to obtain crystals, drying the crystals, grinding the dried crystals with a bantam mill (number of revolutions 15,000 rpm, feed rate 5 kg/hr, and screen opening 2.0 mmφ), and then sifting the ground crystals through a […]. Trehalose B was obtained by carrying out the purification procedure once to obtain crystals, drying the crystals, grinding the dried crystals with a bantam mill (number of revolutions 10,000 rpm, feed rate 5 kg/hr, and screen opening 2.00 mmφ), and then sifting the ground crystals through a 350-μm screen. Trehalose C was obtained by carrying out the purification procedure once to obtain crystals, drying the crystals, grinding the dried crystals with a bantam mill (number of revolutions 8,000 rpm, feed rate 5 kg/hr, and screen opening 2.0 mmφ), and then sifting the ground crystals through a 350-μm screen. […] Each of trehaloses A to C was compressed into tablets at a compression pressure of 500 kg/cm^2, and the tablet hardness immediately after the compression and the tablet hardness after standing for 3 days in an atmosphere of 40° C. and 75% RH after the compression were compared.
“Trehaose” (available from Hayashibara Bioscience Laboratories Co., Ltd.) was purified once by the method described in Example 1 to obtain crystals, which were dried, ground with a bantam mill (number of revolutions 12,000 rpm, feed rate 5 kg/hr, and screen opening 2.0 mmφ) and then dried at 105° C. for 4 hours to obtain trehalose anhydrous crystals. These crystals were compressed into tablets at a compression pressure of 500 kg/cm^2, and the tablet hardnesses of the tablets were compared in the same manner as in Example 1.

[9] = Disintegration time according to Japanese Pharmacopoeia; type: physicochemical
Experimental: The disintegration time of each of six molded products was measured by the use of ion-exchanged water according to the disintegration time measuring method prescribed in the 13th revised Japanese Pharmacopoeia, and the average of measured values was calculated.

[10] = Consolidation of powder during storage; type: physicochemical; settings: compared with trehaloses B and C
[11] = Change in whiteness of excipient mixed with drug at 40° C. and 75% RH (reactivity); type: physicochemical; settings: listed as A
Experimental: as §1
One gram of each of the trehaloses obtained in Example 1 and 1 g of isoniazid were mixed and then allowed to stand in an atmosphere of 40° C. and 75% RH, and the change in whiteness of the trehalose was observed. On the other hand, 1 g of each of the trehaloses obtained in Example 1 and 1 g of aminophyline were mixed and then allowed to stand in an atmosphere of 40° C. and 75% RH, and the change in whiteness of the trehalose was observed.
One gram of 100-mesh lactose (available from De Melkindustrie Veghel bv) or 1 g of Mannit S (available from Tohwa Kasei Co., Ltd.) and 1 g of aminophyline were mixed and then allowed to stand in an atmosphere of 40° C. and 75% RH, and the change in whiteness of the lactose or Mannit S was observed.
As a starting material. […]

[12] = phenacetin 50/excipient 30/corn starch 10/microcrystalline cellulose 10, binding solution 100 g
[13] = phenacetin granules, binding solution 120 g
[14] = phenacetin granules, binding solution 160 g
[15] = phenacetin granules, binding solution 180 g
[16] = phenacetin granules, binding solution 240 g
[17] = Example 10: as Example 9 but molded at 60 kg/cm^2, listed as A
[18] = ascorbic acid tablets (Example 12), compression pressure 500 kg/cm^2
[19] = ascorbic acid tablets (Example 12), compression pressure 800 kg/cm^2

Compound: OC[C@H]1O[C@H](O[C@H]2O[C@H](CO)[C@@H](O)[C@H](O)[C@H]2O)[C@H](O)[C@@H](O)[C@@H]1O [Trehalose K, trehalose]
Tablet hardness at a compression pressure of 1000 kg/cm^2 ([1]; binding solution 100 g): 5.0 kgf
Tablet hardness at a compression pressure of 1000 kg/cm^2 ([1]; binding solution 120 g): 4.5 kgf
Tablet hardness at a compression pressure of 1000 kg/cm^2 ([1]; binding solution 160 g, listed as K): 2.9 kgf
Average particle size [2]: 50 μm
Average particle size of granules [3, 12]: 120 μm
Average particle size of granules [3, 13]: 140 μm
Average particle size of granules [3, 14]: 180 μm
Average particle size of granules ([3]; phenacetin granules, binding solution 160 g, listed as K): 180 μm
Apparent specific volume (Apparent specific volume): 2.1 cm^3/g
Whiteness [4]: 97%
Drug dissolution rate after 5 min. ([5]; binding solution 160, first liquid of Japanese Pharmacopoeia): 80%
Proportion of particles of 75 μm or more [6]: 21%
Angle of repose [7]: 42 °

Compound: OC[C@@H](O)[C@@H](O)[C@H](O)[C@H](O)CO [Mannit P, reference compound]
Tablet hardness at a compression pressure of 1000 kg/cm^2 ([1]; binding solution 180 g): 3.9 kgf
Tablet hardness at a compression pressure of 1000 kg/cm^2 ([1]; binding solution 200 g): 3.0 kgf
Tablet hardness at a compression pressure of 1000 kg/cm^2 ([1]; binding solution 240 g): 3.1 kgf
Average particle size [2]: 47 μm
Average particle size of granules [3, 15]: 106 μm
Average particle size of granules ([3]; phenacetin granules, binding solution 200 g): 144 μm
Average particle size of granules [3, 16]: 313 μm
Apparent specific volume (Apparent specific volume): 2.1 cm^3/g
Whiteness [4]: 96%
Drug dissolution rate after 5 min. ([5]; binding solution 200, first liquid of Japanese Pharmacopoeia): 70%
Proportion of particles of 75 μm or more [6]: 20%
Angle of repose [7]: 45 °

Compound: OC[C@H]1O[C@@H](O[C@H]2[C@H](O)[C@@H](O)C(O)O[C@@H]2CO)[C@H](O)[C@@H](O)[C@H]1O (some centres unmarked) [200M lactose, lactose, reference compound]
Tablet hardness at a compression pressure of 1000 kg/cm^2 ([1]; binding solution 180 g): 2.5 kgf
Tablet hardness at a compression pressure of 1000 kg/cm^2 ([1]; binding solution 220 g): 3.0 kgf
Tablet hardness at a compression pressure of 1000 kg/cm^2 ([1]; binding solution 240 g): 3.7 kgf
Average particle size [2]: 60 μm
Average particle size of granules [3, 15]: 91 μm
Average particle size of granules ([3]; phenacetin granules, binding solution 220 g): 150 μm
Average particle size of granules [3, 16]: 220 μm
Apparent specific volume (Apparent specific volume): 2.1 cm^3/g
Whiteness [4]: 95%
Drug dissolution rate after 5 min. ([5]; binding solution 240, first liquid of Japanese Pharmacopoeia): 60%
Proportion of particles of 75 μm or more [6]: 15%
Angle of repose [7]: 45 °

Continued, values first:

Tablet hardness at a compression pressure of 1000 kg/cm^2 ([1]; binding solution 100 g): 5.1 kgf
Tablet hardness at a compression pressure of 1000 kg/cm^2 ([1]; binding solution 120 g, listed as J): 4.7 kgf
Tablet hardness at a compression pressure of 1000 kg/cm^2 ([1]; binding solution 160 g): 3.0 kgf
Average particle size [2]: 60 μm
Average particle size of granules [3, 12]: 110 μm
Average particle size of granules [3, 13]: 130 μm
Average particle size of granules ([3]; phenacetin granules, binding solution 120 g, listed as J): 130 μm
Average particle size of granules [3, 14]: 270 μm
Apparent specific volume (Apparent specific volume): 2.0 cm^3/g
Whiteness [4]: 96%
Drug dissolution rate after 5 min. ([5]; binding solution 120, first liquid of Japanese Pharmacopoeia): 80%
Proportion of particles of 75 μm or more [6]: 40%
Angle of repose [7]: 41 °
Compound: OC[C@H]1O[C@H](O[C@H]2O[C@H](CO)[C@@H](O)[C@H](O)[C@H]2O)[C@H](O)[C@@H](O)[C@@H]1O [Trehalose J, trehalose]

Tablet hardness ([1]; Example 8: molded product of trehalose only, molded at 30 kg/cm^2, dried overnight at 40° C., listed as A): 7.5 kg
Tablet hardness [1, 17]: 10.2 kg
Tablet hardness [1, 18]: 4.0 kgf
Tablet hardness [1, 19]: 7.0 kgf
Tablet hardness ([1]; process of Example 9: 950 g excipient + 50 g phenylpropanolamine hydrochloride, molded at 30 kg/cm^2, listed as A): 7.0 kg
Tablet hardness ([1]; tablets compressed at 500 kg/cm^2, 0 day (immediately after compression), listed as A): 2.6 kgf
Tablet hardness ([1]; tablets compressed at 500 kg/cm^2, 3 days at 40° C. and 75% RH, listed as A): 2.5 kgf
Average particle size ([2]; listed as A): 35 μm
Water content ([8]; 0 day, listed as A): 9.7%
Water content ([8]; 3 days at 40° C. and 75% RH): 9.8%
Disintegration time according to Japanese Pharmacopoeia ([9]; Example 8: molded product of trehalose only, 30 kg/cm^2, listed as A): 15 s
Disintegration time according to Japanese Pharmacopoeia [9, 17]: 52 s
Disintegration time according to Japanese Pharmacopoeia [9, 18]: 17 s
Disintegration time according to Japanese Pharmacopoeia [9, 19]: 25 s
Disintegration time according to Japanese Pharmacopoeia ([9]; process of Example 9: 950 g excipient + 50 g phenylpropanolamine hydrochloride, 30 kg/cm^2, listed as A): 16 s
Apparent specific volume (Apparent specific volume; listed as A): 3.1 cm^3/g
Whiteness ([4]; listed as A): 98%
Consolidation during storage [10]: consolidated during storage
Whiteness ([11]; 1 g excipient + 1 g aminophyline, 0 day): 100%
Whiteness ([11]; 1 g excipient + 1 g aminophyline, 40° C. and 75% RH, 1 month): 98%
Whiteness ([11]; 1 g excipient + 1 g isoniazid, 0 day): 98%
Whiteness ([11]; 1 g excipient + 1 g isoniazid, 40° C. and 75% RH, 1 month): 97%
Proportion of particles of 75 μm or more ([6]; listed as A): 15%
Angle of repose ([7]; listed as A): 48 °
Compound: OC[C@H]1O[C@H](O[C@H]2O[C@H](CO)[C@@H](O)[C@H](O)[C@H]2O)[C@H](O)[C@@H](O)[C@@H]1O [Trehalose A, trehalose]
